Laboratory results reported in ChEMBL document CHEMBL3885881, “DrugMatrix”.

Assays:
[1] = species: Rattus norvegicus; assay type: toxicity, organism-based, Sprague-Dawley; details: in vivo, po, 0 mg/kg, 24 h, vehicle control, route oral GAVAGE, dose level Control, time 1 day, vehicle .5 % CMC
Description: DrugMatrix - Regimen: Single

[2] = species: Rattus norvegicus; assay: DrugMatrix - Regimen: Daily Repeat; assay type: toxicity, organism-based, Sprague-Dawley; set-up: regimen Daily Repeat, gender Male, age 6-8 weeks; details: in vivo, po, 0 mg/kg, 72 h, route oral GAVAGE, dose level Control, time 3 day, vehicle .5 % CMC

SMILES: ClC(Br)Br [DIBROMOCHLOROMETHANE]
- ABSOLUTE EOSINOPHIL ([1]; tissue Blood): 150 CELLS/uL
- ABSOLUTE LYMPHOCYTE ([1]; tissue Blood): 13279.83 CELLS/uL
- ABSOLUTE MONOCYTE ([1]; tissue Blood): 654.5 CELLS/uL
- ABSOLUTE SEGMENTED NEUTROPHIL ([1]; tissue Blood): 1565.67 CELLS/uL
- BASOPHIL ([1]; tissue Blood): 0%
- EOSINOPHIL ([1]; tissue Blood): 1%
- ERYTHROCYTE COUNT ([1]; tissue Blood): 5.36 x10E6/uL
- HEMATOCRIT ([1]; tissue Blood): 33.37%
- HEMOGLOBIN ([1]; tissue Blood): 12.52 G/DL
- LEUKOCYTE COUNT ([1]; tissue Blood): 15.65 x10E3/uL
- LYMPHOCYTE ([1]; tissue Blood): 84.83%
- MEAN CORPUSCULAR HEMOGLOBIN ([1]; tissue Blood): 23.4 pg
- MEAN CORPUSCULAR HEMOGLOBIN CONCENTRATION ([1]; tissue Blood): 37.52 G/DL
- MEAN CORPUSCULAR VOLUME ([1]; tissue Blood): 62.32 fL
- MONOCYTE ([1]; tissue Blood): 4.17%
- NEUTROPHIL ([1]; tissue Blood): 10%
- NUCLEATED RED BLOOD CELLS ([1]; tissue Blood): 0 /100WBC
- PLATELET COUNT ([1]; tissue Blood): 1020 x10E3/uL
- ALANINE AMINOTRANSFERASE ([1]; tissue Plasma): 49 u/L
- ALBUMIN ([1]; tissue Plasma): 4.47 G/DL
- ALKALINE PHOSPHATASE ([1]; tissue Plasma): 361.17 u/L
- ASPARTATE AMINOTRANSFERASE ([1]; tissue Plasma): 78.67 u/L
- BLOOD UREA NITROGEN ([1]; tissue Plasma): 13.17 mg/dL
- CARBON DIOXIDE ([1]; tissue Plasma): 29.67 mmol/L
- CHLORIDE ([1]; tissue Plasma): 100.83 MEQ/L
- CHOLESTEROL ([1]; tissue Plasma): 82.17 mg/dL
- CREATININE ([1]; tissue Plasma): 0.15 mg/dL
- GLUCOSE ([1]; tissue Plasma): 150.83 mg/dL
- LACTATE DEHYDROGENASE ([1]; tissue Plasma): 239.17 u/L
- LIPASE ([1]; tissue Plasma): 7.83 u/L
- PHOSPHORUS ([1]; tissue Plasma): 13.82 mg/dL
- POTASSIUM ([1]; tissue Plasma): 6.62 MEQ/L
- SODIUM ([1]; tissue Plasma): 144.25 MEQ/L
- TOTAL BILIRUBIN ([1]; tissue Plasma): 0.15 mg/dL
- TOTAL PROTEIN ([1]; tissue Plasma): 6.2 G/DL
- URIC ACID ([1]; tissue Plasma): 1.57 mg/dL
- ABSOLUTE BASOPHIL ([2]; tissue Blood): 0 CELLS/uL
- ABSOLUTE EOSINOPHIL ([2]; tissue Blood): 279.83 CELLS/uL
- ABSOLUTE LYMPHOCYTE ([2]; tissue Blood): 13152.5 CELLS/uL
- ABSOLUTE MONOCYTE ([2]; tissue Blood): 1013.83 CELLS/uL
- ABSOLUTE SEGMENTED NEUTROPHIL ([2]; tissue Blood): 2420.5 CELLS/uL
- BASOPHIL ([2]; tissue Blood): 0%
- EOSINOPHIL ([2]; tissue Blood): 1.67%
- ERYTHROCYTE COUNT ([2]; tissue Blood): 5.26 x10E6/uL
- HEMATOCRIT ([2]; tissue Blood): 32.22%
- HEMOGLOBIN ([2]; tissue Blood): 12.02 G/DL
- LEUKOCYTE COUNT ([2]; tissue Blood): 16.87 x10E3/uL
- LYMPHOCYTE ([2]; tissue Blood): 77.83%
- MEAN CORPUSCULAR HEMOGLOBIN ([2]; tissue Blood): 22.93 pg
- MEAN CORPUSCULAR HEMOGLOBIN CONCENTRATION ([2]; tissue Blood): 37.32 G/DL
- MEAN CORPUSCULAR VOLUME ([2]; tissue Blood): 61.4 fL
- MONOCYTE ([2]; tissue Blood): 6%
- NEUTROPHIL ([2]; tissue Blood): 14.5%
- NUCLEATED RED BLOOD CELLS ([2]; tissue Blood): 0 /100WBC
- PLATELET COUNT ([2]; tissue Blood): 1122.17 x10E3/uL
- ALANINE AMINOTRANSFERASE ([2]; tissue Plasma): 55.67 u/L
- ALBUMIN ([2]; tissue Plasma): 4.35 G/DL
- ALKALINE PHOSPHATASE ([2]; tissue Plasma): 362.67 u/L
- ASPARTATE AMINOTRANSFERASE ([2]; tissue Plasma): 96 u/L
- BLOOD UREA NITROGEN ([2]; tissue Plasma): 18 mg/dL
- CARBON DIOXIDE ([2]; tissue Plasma): 27.5 mmol/L
- CHLORIDE ([2]; tissue Plasma): 100.17 MEQ/L
- CHOLESTEROL ([2]; tissue Plasma): 74.5 mg/dL
- CREATININE ([2]; tissue Plasma): 0.17 mg/dL
- GLUCOSE ([2]; tissue Plasma): 141.67 mg/dL
- LACTATE DEHYDROGENASE ([2]; tissue Plasma): 682.5 u/L
- LIPASE ([2]; tissue Plasma): 10 u/L
- PHOSPHORUS ([2]; tissue Plasma): 11.5 mg/dL
- POTASSIUM ([2]; tissue Plasma): 6.41 MEQ/L
- SODIUM ([2]; tissue Plasma): 141.2 MEQ/L
- TOTAL BILIRUBIN ([2]; tissue Plasma): 0.18 mg/dL
- TOTAL PROTEIN ([2]; tissue Plasma): 5.88 G/DL
- URIC ACID ([2]; tissue Plasma): 1.4 mg/dL
